Series [1] addresses truncated human beta-secretase, BACE1 (amino acids 1-454) (Homo sapiens (Human), UniProt P56817). Briefly: BACE1 Assay (Assay 1), fluorescence quench assay. In kind it is biochemical. Conditions: pH 4.4. The protocol: The substrate was dissolved at 1 mg/ml in DMSO.
The assay was performed in the presence of OptiMEM™ (supernatant collected over 24 h and cleared from cellular debris by centrifugation) containing the ectodomain of BACE1, 25 μl water containing the desired 2-fold concentration of test compound and 2% DMSO, 1 μM substrate peptide, 20 mM NaOAc, pH 4.4, and 0.04% Triton-X100 in a total assay volume of 50 μl in a 384 well plate. In general, 25 μl of compound dilution were added to the plate followed by the addition of 10 μl of BACE1 containing OptiMEM™ diluted 1:10 in water with 0.2% Triton X-100. The reaction was started with the addition of 15 μl substrate in NaOAc buffer. The reaction was incubated at rt (dark) in an Envision® multilabel reader (Perkin Elmer) and the cleavage of the substrate was recorded as kinetic for […] at ex: 485 nm, em: 538 nm. Blank wells containing no enzyme were included on each plate.
The intensity of fluorescence was regressed against time in order to derive velocities of reaction in all 384 wells. These velocities were used for calculating percent control using an uninhibited control containing 1% DMSO as 100% and a blank control performed in the absence of enzyme as 0%. IC50 values were calculated by fitting percent control vs. test compound concentration using Assay Explorer®.

Series [2] addresses hERG channel (Homo sapiens (Human), UniProt Q12809). The series is described as follows: hERG-Channel Assay (Assay 2), whole-cell patch clamp in HEK293 cells stably transfected with hERG cDNA. In kind it is cell-based. The note with it: for inhibition at 10 µM: human, HEK293 cells stably transfected with hERG cDNA, pH 7.4, 35° C.; for % Inhibition hERG @ 10 μM (assay 2): 35° C. An excerpt:
hERG-Channel Assay (Assay 2)
Cells: HEK (human embryonic kidney) 293 cells were stably transfected with hERG cDNA.
Cells were superfused with a bath solution containing (mM): NaCl (137), KCl (4.0), MgCl2 (1.0), CaCl2 (1.8), Glucose (10), HEPES (10), pH 7.4 with NaOH. Patch pipettes were made from borosilicate glass tubing using a horizontal puller and filled with pipette solution containing (mM): K-aspartate (130), MgCl2 (5.0), EGTA (5.0), K2ATP (4.0), HEPES (10.0), pH 7.2 with KOH. Resistance of the microelectrodes was in the range between 2 and 5 MΩ.
Stimulation and Recording:
Membrane currents were recorded using an EPC-10 patch clamp amplifier and PatchMaster software. hERG-mediated membrane currents were recorded at 35° C., using the whole-cell configuration of the patch-clamp technique. Transfected HEK293 cells were clamped at a holding potential of −60 mV and hERG-mediated inactivating tail currents were elicited using a pulse pattern with fixed amplitudes (activation/inactivation: 40 mV for 2000 ms; recovery: −120 mV for 2 ms; ramp to 40 mV in 2 ms; inactivating tail current: 40 mV for 50 ms) repeated at 15 s intervals. During each inter-pulse interval, 4 pulses scaled down by a factor of 0.2 were recorded for a P/n leak subtraction procedure. Rs compensation was employed up to a level that safely allowed recording devoid of ringing.
Compound Preparation and Application:
The different concentrations of the test compounds were applied sequentially on each of the different cells investigated. A steady state level of baseline current was measured for at least 6 sweeps prior to the application of the first test compound concentration.
The test compound was dissolved in DMSO to yield a master stock solution which was diluted further in DMSO to stock solutions needed for the lower concentrations. Final dilutions in extracellular buffer were prepared freshly from these stocks by a 1:1000 dilution step each before starting the experiments.
Peak current amplitudes were measured 3 ms after the ramp to +40 mV. For baseline and each concentration, the peak currents of the three last sweeps before application of the next concentration were averaged. Residual currents (I/I0) were calculated for each cell as the fraction of actual average peak current and average baseline peak current.
A general note: hERG is a cardiac potassium channel; its block is linked to QT prolongation.

A short description of series [3]: In Vitro Phospholipidosis Assay (Assay 3), Nile red staining. Type of series: cell-based, human. The note with it: human, first effect concentration, U937 cells, read-out: Phospholipidosis FEC IC50 μM (assay 3). The protocol:
(§1) In Vitro Phospholipidosis Assay (Assay 3)
(§2) The phospholipidogenic potential of test compounds was assayed using the human hematopoetic U937 cell line. The test principle was to analyze the phospholipid content by staining the cells with the fluorescent dye Nile red.
(§3) U937 cells were seeded into cell culture plates at 0.5×10^6 cells/mL in RPMI medium containing 10% FBS, 1% DMSO, and 0.005% gentamicin. The cells were cultivated with or without different concentrations of test compound for 48 h under standard culture conditions.
(§4) For harvesting, the cells were centrifuged at 130×g for 4 min and washed once with PBS. Then, 2×0.5 mL cell suspensions were prepared for non-fixed cell measurement (0.5 mL for propidium iodide (PI) viability measurement and 0.5 mL for Nile red measurement).
(§5) The remaining cells were fixed with 3.7% formaldehyde for 30 min. After a further centrifugation step, cells were resuspended with 1.3 mL Nile red working solution (1 μg/mL) and incubated for 5 min at rt. The cell suspension was washed twice with 3 mL PBS and centrifuged with 130×g for 4 min. The supernatant was discarded and the cells were resuspended with 0.5 mL PBS and kept for flow cytometry measurement.
(§6) For Nile red staining of the 0.5 mL non-fixed cell samples, 50 μL of a ready to use Nile red solution (10 μg/mL) were added per sample. Samples were kept on ice for 5 min. Thereafter, they were washed once with 4 mL PBS (4° C., 250×g for 8 min) and finally resuspended in 400 μL PBS and kept for flow cytometry measurement.
(§7) For the viability measurement, 12.5 μL of the ready to use PI solution (10 μg/mL) were added to the 0.5 mL non-fixed cell suspension. After 15 min of incubation on ice, the samples were measured by flow cytometry using a Coulter Epics XL/MCL flow cytometer.
(§8) The viability of the cells of each sample was determined by flow cytometry measurement of the PI content at channel 2 (568-590 nm). Cut-off gates for the fluorescence-dependent differentiation between live and dead cells were defined based on the analysis of cell culture medium control samples.
(§9) Only samples with a cell viability of >=90% relative to control samples were analyzed for phospholipidosis. Each Nile red sample (non-fixed and fixed samples) was measured by flow cytometry at channel 1 (504-541 nm) and channel 4 (660-680 nm).
(§10) For each channel, relative Nile red fluorescence intensity of a test sample was calculated compared to control samples and expressed as a percentage of control fluorescence intensity. The assessment of the phospholipidogenic potential and the first effective concentration (FEC) of a test compound was done manually based on the fluorescence intensities at both wavelengths for the fixed cells, as well as for the non-fixed cells.

For series [4], the system named is Human Hepatocytes. Briefly: In Vitro Hepatocyte Stability Assay (Assay 4). Conditions: predicted blood clearance as percent of hepatic blood flow. In kind it is in vitro ADME. Here is the method: In Vitro Hepatocyte Stability Assay (Assay 4)
The metabolic degradation of test compounds was assayed in a hepatocyte suspension. Cryopreserved hepatocytes were incubated in an appropriate buffer system (e.g., Dulbecco's modified eagle medium plus 3.5 μg glucagon/500 mL, 2.5 mg insulin/500 mL and 3.75 mg/500 mL hydrocortison) containing 5% species serum. Following a 30 min preincubation in an incubator (37° C., 10% CO2), 5 μl of test compound solution (80 μM; from 2 mM in DMSO stock solution diluted 1:25 with medium) were added into 395 μl hepatocyte suspension (cell density in the range 0.25−5×10^6 cells/mL, typically 1×10^6 cells/mL; final concentration of test compound final DMSO concentration […]).
The cells were incubated for six h (incubator, orbital shaker) and samples (25 μl) were taken at 0, 0.5, 1, 2, 4 and 6 h. Samples were transferred into acetonitrile and pelleted by centrifugation (5 min). The supernatant was transferred to a new 96 DeepWell™ plate, evaporated under nitrogen and resuspended. Decline of compound was analyzed by HPLC-MS/MS. CLint (in vitro hepatic intrinsic clearance) was calculated as follows: CLint=Dose/AUC=(C0/CD)/(AUD+Clast/k)×1000/60
C0: initial concentration in the incubation [μM];
CD: cell density of vital cells [cells/mL];
AUD: area under the data [μM×h];
Clast: concentration of last data point [μM];
k: slope of the regression line for compound decline [h^−1].
The calculated in vitro hepatic intrinsic clearance was scaled up to the intrinsic in vivo hepatic clearance (Clint in vivo) and used to predict hepatic in vivo blood clearance (CL) by the use of a liver model (well-stirred model), as follows: CLint,in vivo[mL/min/kg]=(CLint[μL/min/10^6 cells]×hepatocellularity[10^6 cells/g liver]×liver factor [g/kg body weight])/1000 CL[mL/min/kg]=CLint,to vivo×hepatic blood flow[ml/min/kg]/(CLint,in vivo[ml/min/kg]+hepatic blood flow[mL/min/kg])
The in vivo blood clearance was transformed into percent of the hepatic blood flow (% Qh): % Qh=CL[mL/min/kg]/hepatic blood flow[mL/min/kg])×100
Hepatocellularity, human: 1.2×10^7 cells/g liver;
Liver factor, human: 25.7 g/kg body weight;
Hepatic blood flow, human: 21 mL/(min×kg).

The test system of series [5] is human hematopoetic U937 cell line. The series is described as follows: In Vitro Phospholipidosis Assay (Assay 3), Nile red staining. In kind it is cell-based. The note with it: first effect concentration; U937 cells, 48 h; read-out: Phospholipidosis FEC IC50 μM (assay 3). The protocol: as §1, §2, §3, §4, §5, §6, §7, §8, §9, §10

The term IC50 denotes the concentration that inhibits the measured activity by half. For orientation: inhibition means the relative decrease from the control value, in per cent.

Chain of truncated human beta-secretase, BACE1 (amino acids 1-454) (P56817 22-454): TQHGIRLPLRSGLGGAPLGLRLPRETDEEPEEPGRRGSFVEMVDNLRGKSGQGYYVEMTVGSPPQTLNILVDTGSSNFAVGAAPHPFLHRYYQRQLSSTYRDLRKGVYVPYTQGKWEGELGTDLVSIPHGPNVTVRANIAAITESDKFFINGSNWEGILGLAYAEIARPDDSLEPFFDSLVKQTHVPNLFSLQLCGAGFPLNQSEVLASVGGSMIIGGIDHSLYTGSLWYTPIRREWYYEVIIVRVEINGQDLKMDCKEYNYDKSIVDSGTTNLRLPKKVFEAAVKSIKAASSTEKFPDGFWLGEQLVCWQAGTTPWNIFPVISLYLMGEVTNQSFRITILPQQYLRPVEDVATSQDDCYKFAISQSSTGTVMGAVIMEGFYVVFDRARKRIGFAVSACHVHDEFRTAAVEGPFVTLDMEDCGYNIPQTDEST
Chain of hERG channel (Q12809 whole entry): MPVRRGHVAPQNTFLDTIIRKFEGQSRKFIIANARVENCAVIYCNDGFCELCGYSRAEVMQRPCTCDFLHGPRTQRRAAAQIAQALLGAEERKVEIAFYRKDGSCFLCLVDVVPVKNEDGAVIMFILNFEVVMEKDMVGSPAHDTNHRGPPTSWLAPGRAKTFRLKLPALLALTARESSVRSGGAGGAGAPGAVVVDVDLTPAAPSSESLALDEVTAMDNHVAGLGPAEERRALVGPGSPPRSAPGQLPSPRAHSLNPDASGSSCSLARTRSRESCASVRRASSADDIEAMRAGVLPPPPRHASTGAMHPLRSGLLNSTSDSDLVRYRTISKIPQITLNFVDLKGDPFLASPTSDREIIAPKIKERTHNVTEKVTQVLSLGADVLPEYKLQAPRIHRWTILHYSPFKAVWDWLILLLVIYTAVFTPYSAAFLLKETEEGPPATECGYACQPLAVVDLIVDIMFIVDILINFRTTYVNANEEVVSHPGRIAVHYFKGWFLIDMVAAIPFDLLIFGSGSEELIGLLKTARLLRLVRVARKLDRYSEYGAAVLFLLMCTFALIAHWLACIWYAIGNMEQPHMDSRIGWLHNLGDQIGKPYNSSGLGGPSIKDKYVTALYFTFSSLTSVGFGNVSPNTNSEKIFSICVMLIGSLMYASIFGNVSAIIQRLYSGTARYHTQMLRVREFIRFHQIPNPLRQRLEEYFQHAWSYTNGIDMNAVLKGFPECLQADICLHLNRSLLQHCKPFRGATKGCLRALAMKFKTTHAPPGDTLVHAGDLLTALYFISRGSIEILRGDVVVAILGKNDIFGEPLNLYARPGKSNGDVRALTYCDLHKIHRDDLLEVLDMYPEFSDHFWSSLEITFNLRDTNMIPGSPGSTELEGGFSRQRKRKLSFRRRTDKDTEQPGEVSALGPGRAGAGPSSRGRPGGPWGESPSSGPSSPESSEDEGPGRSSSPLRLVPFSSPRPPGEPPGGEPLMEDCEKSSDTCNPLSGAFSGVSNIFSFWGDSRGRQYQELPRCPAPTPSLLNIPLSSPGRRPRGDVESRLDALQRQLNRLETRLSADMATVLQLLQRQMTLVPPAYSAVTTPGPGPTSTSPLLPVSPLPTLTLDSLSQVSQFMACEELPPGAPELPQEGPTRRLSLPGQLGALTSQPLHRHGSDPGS

With `Cc1cc(CN2C(=O)[C@]3(N=C2N)c2cc(C#N)ccc2C[C@@]32C[C@@H](C)[C@H](O)[C@@H](C)C2)ccn1.O=C(O)C(F)(F)F` [Example 16], the IC50 in series [1] came to 9.4 nM. Further, in series [2], 10 µM produced 1.4% inhibition. In addition, the concentration for half-maximal inhibition (IC50) at 48 h in series [3] worked out at 200 µM. Further, the “In vitro Human Hepatocytes % Qh @ 1 μM (assay 4)” value in series [4] is 19 % Qh.
As to `COC1CCC2(CC1)Cc1ccc(C#N)cc1[C@]21N=C(N)N(C)C1=O` (some centres unmarked) [drawing 18, reference compound], the “% Inhibition hERG @ 10 μM (assay 2)” value in series [2] is listed as 90%. Further, the IC50 in series [5] was determined as 400 µM. Besides, the “In vitro Human Hepatocytes % Qh @ 1 μM (assay 4)” value in series [4] is 14 % Qh.
`C[C@@H]1C[C@@]2(Cc3ccc(-c4cncnc4)cc3[C@]23N=C(N)N(CC(C)(C)F)C3=O)C[C@H](C)[C@H]1O` [Example 5]: the IC50 in series [1] was found to be 2.6 nM. The compound also had an inhibition at 10 µM in series [2] of 12%. Also, the IC50 at 48 h in series [3] was determined as 400 µM. Further, the “In vitro Human Hepatocytes % Qh @ 1 μM (assay 4)” value in series [4] is reported as 6.1 % Qh.
For `C[C@@H]1C[C@@]2(Cc3ccc(C#N)cc3[C@]23N=C(N)N(CC2CC2)C3=O)C[C@H](C)[C@H]1O` [Example 10] the same measures were 10.6 nM, 33%, greater than 100 µM and 0 % Qh.
Consider `C[C@@H]1C[C@@]2(Cc3ccc(C#N)cc3[C@]23N=C(N)N(CCc2ccncc2)C3=O)C[C@H](C)[C@H]1O.O=C(O)C(F)(F)F` [Example 15], for which half-maximal inhibition in series [1] (IC50) required 9.7 nM. Also, in series [2], the inhibition at 10 µM came to 15.2%. Also, the IC50 at 48 h in series [3] is 800 µM. Besides, the “In vitro Human Hepatocytes % Qh @ 1 μM (assay 4)” value in series [4] is given as 22.9 % Qh.
As for `C[C@@H]1C[C@@]2(Cc3ccc(C#N)cc3[C@]23N=C(N)N(CC2CC(F)(F)C2)C3=O)C[C@H](C)[C@H]1O.O=C(O)C(F)(F)F` [Example 14], in series [1], half-maximal inhibition (IC50) was put at 4.5 nM. This compound gave an inhibition at 10 µM in series [2] of 27%. For the same compound, the IC50 at 48 h in series [3] was found to be 200 µM. In series [4], the “In vitro Human Hepatocytes % Qh @ 1 μM (assay 4)” value is 5.2 % Qh.
Regarding `COC1CCC2(CC1)Cc1ccc(C#N)cc1[C@]21N=C(N)N(C)C1=O` (some centres unmarked) [drawing 15, reference compound], the “% Inhibition hERG @ 10 μM (assay 2)” value in series [2] is recorded as 90%. For the same compound, the IC50 in series [5] is 400 µM. Moreover, the “In vitro Human Hepatocytes % Qh @ 1 μM (assay 4)” value in series [4] is recorded as 14 % Qh.

The values above are taken from patent US9018391B2, “Inhibitors of beta-secretase” (Boehringer Ingelheim International GmbH, priority 2012, dated 2015).
